# No end group written: not given here.
# Legend:
# Type in all cases: in vivo, human
# [1] = test system: tumor microenvironment (TME) in pancreatic cancer; experiment: Modulation of the TME in paired tumor biopsies by multiplex ion beam image analysis, pancreatic cancer; conditions: 8 pairs of pancreatic cancer biopsies from Parts 1 & 2
# Method: FIG. 5A and FIG. 5B are charts showing that VT1021 modulates the TME in pancreatic cancer.
# In the “expansion stage” of the VT1021-01 Study, subjects diagnosed with recurrent GBM, pancreatic cancer, ovarian cancer and other solid tumors were enrolled. They were treated with VT1021 at 11.8 mg/kg, twice weekly by IV infusion. The blood samples were collected from the clinical study at pre-treatment, 0, 2, 4, 6 hours post treatment to measure the levels of VT1021 (FIG. 2). The tumor biopsy samples prior to treatment and during treatment were collected from the clinical study to measure expression levels of biomarkers including CD36 and CD47, as well as cell surface markers for immune cell populations in the TME by immunohistochemistry assays (FIG. 3, FIG. 4, FIG. 5). The correlation between days on study and tumor shrinkage versus expression profile of CD36 and CD47 was analyzed (FIG. 4). The general expression profile of CD36 and CD47 has been assessed by IHC on Tumor Tissue Microarrays (TMAs), which contain biopsy samples collected from pancreatic cancer patients. TMAs were purchased from commercial sources, not related to the VT1021-01 clinical study.
# FIG. 5A and FIG. 5 B are charts showing that VT1021 modulates the TME in pancreatic cancer. Modulation of the TME by VT1021 in paired biopsies from subjects with pancreatic cancer was assessed by multiplex ion beam image analysis. Representative images from 1 of 3 regions of interest in tumor biopsies from a subject obtained pre-treatment (pre) and on-study (on). […] TSP-1+increased >2 fold in on-study biopsies compared to pre-treatment, both the CTL/Treg and M1/M2 macrophage ratios increased and the percent of M1 macrophages increased >3 fold in the TME after treatment with VT1021.
# recurrent GBM (rGBM) = experiment: Phase I/II clinical study: clinical response and duration of treatment in recurrent GBM
# Method: VT1021 was evaluated in a recently completed phase I/II open-label, multicenter, dose escalation (Part 1) and expansion (Part 2) clinical study in advanced, refractory, solid tumors including recurrent GBM (rGBM) (NCT03364400). Thirty-two subjects with rGBM were dosed in Part 2, 22 of which were considered evaluable as having completed ≥1 cycle of VT1021 treatment and tumor imaging during cycle 2. […] The blood samples were collected from GBM subjects in the expansion phase, who were treated by VT1021 at 11.8 mg/kg, twice weekly, by IV infusion. VT1021 levels were measured and analyzed among male and female subjects (FIG. 7). Days on study have been collected from the same group of subjects (FIG. 8). […] CD36 and CD47 levels have been measured by immunohistochemistry assays in the pre-treatment tumor biopsy samples of the GBM subjects (FIG. 9, FIG. 10). Levels of Tsp-1 were measured by ELISA for circulating Tsp-1 levels in the collected blood samples, and by immunohistochemistry for the level of Tsp-1 accumulated in the tumor biopsy samples (FIG. 10). The infiltration of immune and inflammatory cells, specifically, MDSCs, T cells and macrophages, were determined by immunohistochemical analysis of the levels of cell surface markers in the tumor biopsy samples of subjects (FIG. 11). […] Among 22 evaluable rGBM subjects, 3 had complete response (CR), 1 had partial response (PR), and 7 had stable disease (SD) with an average study duration of over 203 days. The overall disease control rate (DCR) was 50%. […] Of the 11 CR/PR/SDs, 6 were dual high (55%). […] Complete response scan images and lesion shrinkage for 1 of 3 subjects who achieved CR.
# TSP-1 = experiment: Immunohistochemistry and pathological examination of pre-treatment and on-study rGBM tumor biopsy; conditions: subject with rGBM who achieved CR
# From the text: FIG. 10 is a chart showing that VT1021 induces TSP-1 in the circulation and the TME. (A) Bar graph of Tsp-1 protein levels measured by ELISA in circulating MDSCs collected prior to (baseline) and after (induction) treatment with VT1021 from patients who experienced complete or partial response, stable disease, or progressive disease; (B) H&E and immunohistochemical analysis of patient tumor tissue prior to onset (pre) or during treatment with VT1021; (C) Immunohistochemical analysis depicting representative images of high levels of CD36 and CD47.
# The blood samples were collected from GBM subjects in the expansion phase, who were treated by VT1021 at 11.8 mg/kg, twice weekly, by IV infusion. VT1021 levels were measured and analyzed among male and female subjects (FIG. 7). […] CD36 and CD47 levels have been measured by immunohistochemistry assays in the pre-treatment tumor biopsy samples of the GBM subjects (FIG. 9, FIG. 10). Levels of Tsp-1 were measured by ELISA for circulating Tsp-1 levels in the collected blood samples, and by immunohistochemistry for the level of Tsp-1 accumulated in the tumor biopsy samples (FIG. 10). The infiltration of immune and inflammatory cells, specifically, MDSCs, T cells and macrophages, were determined by immunohistochemical analysis of the levels of cell surface markers in the tumor biopsy samples of subjects (FIG. 11).
# [2] = among 22 evaluable rGBM subjects
# [3] = among the 9 CD36/CD47 dual-high rGBM subjects
# [4] = the 9 CD36/CD47 dual-high rGBM subjects
substance,measurement,setting,value
"cyclic DWLPK (also: cyclic, mode of cyclisation not given here) [VT1021, 5-amino acid cyclic peptide from prosaposin; Tsp-1-inducing agent]",CTL/Treg ratio in the TME after treatment,[1],increased
same,M1/M2 macrophage ratio in the TME after treatment,[1],increased
same,"TSP-1+ mean intensity, increase on-study vs pre-treatment",[1],> 2 fold
same,"percent of M1 macrophages, increase in the TME after treatment",[1],> 3 fold
same,treatment until lesion no longer measurable,"recurrent GBM (rGBM); 1 CR rGBM subject, MRI lesion measurement",9 cycles
same,time on study,"recurrent GBM (rGBM); 1 CR rGBM subject, still on-going",476 days
same,overall disease control rate (DCR),recurrent GBM (rGBM); 22 evaluable rGBM subjects,50%
same,subjects with complete response (CR),recurrent GBM (rGBM); [2],3
same,subjects with partial response (PR),recurrent GBM (rGBM); [2],1
same,subjects achieving CR,recurrent GBM (rGBM); [3],3
same,subjects achieving SD,recurrent GBM (rGBM); [3],3 subjects
same,average study duration,"recurrent GBM (rGBM); rGBM subjects with CR, PR or SD",over 203 days
same,DCR,recurrent GBM (rGBM); [4],67%
same,overall response rate,recurrent GBM (rGBM); [4],33.3%
same,TSP-1 in the on-study biopsy,TSP-1,TSP-1 induction
same,tumor cells by pathological examination of the on-study biopsy,TSP-1,No tumor cells were detected

# From US20250041379A1, “METHODS AND COMPOSITIONS FOR THE TREATMENT OF CANCER” (Vigeo Therapeutics, Inc., priority 2021, published 2025)
